The target of the assay is T1, Human VPS34 (Homo sapiens, UniProt Q8NEB9).
T1 construct: GST (N); host or cells: SF9 insect cells (baculovirus)
T1 sequence (Q8NEB9 whole entry): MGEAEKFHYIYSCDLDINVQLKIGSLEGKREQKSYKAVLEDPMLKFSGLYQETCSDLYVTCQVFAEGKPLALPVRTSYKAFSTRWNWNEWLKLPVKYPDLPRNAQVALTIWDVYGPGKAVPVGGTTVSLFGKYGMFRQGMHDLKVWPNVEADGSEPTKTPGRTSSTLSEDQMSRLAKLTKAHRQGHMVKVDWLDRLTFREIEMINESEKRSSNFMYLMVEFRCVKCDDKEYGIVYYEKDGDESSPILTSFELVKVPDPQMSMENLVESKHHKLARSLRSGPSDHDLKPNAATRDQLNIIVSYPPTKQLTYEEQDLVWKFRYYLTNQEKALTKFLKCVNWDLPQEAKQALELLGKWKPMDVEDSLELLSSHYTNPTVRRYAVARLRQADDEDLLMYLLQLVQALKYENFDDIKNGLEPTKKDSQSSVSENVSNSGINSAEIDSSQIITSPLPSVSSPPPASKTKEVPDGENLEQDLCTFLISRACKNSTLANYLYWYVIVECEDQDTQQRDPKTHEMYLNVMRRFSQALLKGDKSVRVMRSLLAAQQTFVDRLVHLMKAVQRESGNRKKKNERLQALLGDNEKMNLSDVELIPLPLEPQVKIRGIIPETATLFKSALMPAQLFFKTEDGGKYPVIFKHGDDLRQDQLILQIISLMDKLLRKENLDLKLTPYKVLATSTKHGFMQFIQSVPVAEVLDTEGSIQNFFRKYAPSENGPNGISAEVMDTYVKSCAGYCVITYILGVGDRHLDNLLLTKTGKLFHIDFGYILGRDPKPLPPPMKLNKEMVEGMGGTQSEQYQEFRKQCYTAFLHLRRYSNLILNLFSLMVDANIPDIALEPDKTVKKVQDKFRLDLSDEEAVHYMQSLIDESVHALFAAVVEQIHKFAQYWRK
Put plainly: Human VPS34 Enzyme Assay (Adapta TR-FRET). The format is biochemical. Particulars: compound at 1.111 μM; read-out: Average VPS34 % INH @ 1.111 μM. As for the experimental part: VPS34 (accession number GB:BC033004) was cloned into pDEST20-Thombin as N-terminal GST tagged fusion proteins using the Gateway system (Invitrogen, catalog#11804-013). The sequences were verified before recombinant protein expression using the Baculovirus Expression System with Gateway® Technology.
For expression VPS34 was infected at 1MOI in SF9 cells and harvested 72 hours post infection.
For purification, VPS34 is purified by Glutathione Sepharose 4 Fast Flow (GE Healthcare #17-5132-03) followed by HiTrap Q (GE Healthcare #17-1153-01).
Human VPS34 Enzyme Assay Method
100 nL compounds in DMSO are added to wells of a 384 well microtitre plate (Greiner 780076). At room temperature: 5 ul VPS34 reaction buffer (Invitrogen Assay Buffer Q (diluted 1 in 5 with nanopure water) plus 2 mM DTT and 2 mM MnCl2) containing ATP (20 uM, Promega) and 200 uM PI-PS substrate (Invitrogen PV5122) is added followed immediately by 5 ul VPS34 reaction buffer (as above) containing VPS34 (5 nM, Millennium Protein Sciences Group) and the mixture is incubated with shaking at room temperature for 1 hour. Then 5 ul VPS34 stop-detect mix (as per Invitrogen Adapta Assay kit (PV5009) instructions (contains kinase quench buffer, TR-FRET buffer, Adapta Eu anti-ADP antibody and Alexa Fluor 647 ADP tracer)) is added to quench the reaction. The plates are then incubated for 30 minutes at room temperature with shaking and then read on a BMG PheraStar Plus reader.
3) VPS34 is assayed using Adapta™ Universal Kinase Assay Kit (Invitrogen).
Take `CC(=O)Nc1cc(-c2cc(C(=O)NCc3ccccc3)c(-c3ccccc3Cl)o2)c(C)cn1` [Compound I-53, 5-(2-acetamido-5-methylpyridin-4-yl)-N-benzyl-2-(2-chlorophenyl)-3-furamide]: the inhibition at 1.111 µM worked out at 104%.

In the case of `CNC(=O)c1cc(-c2cc(NC(C)=O)ncc2C)oc1-c1ccccc1Cl` [Compound I-54, 5-(2-acetamido-5-methylpyridin-4-yl)-2-(2-chlorophenyl)-N-methyl-3-furamide], the inhibition at 1.111 µM came to 152%. `CC(=O)Nc1cc(-c2nc(C(=O)NCc3ccccc3)c(-c3ccccc3Cl)o2)c(C)cn1` [Compound I-55, 2-(2-acetamido-5-methylpyridin-4-yl)-N-benzyl-5-(2-chlorophenyl)-1,3-oxazole-4-carboxamide]: the inhibition at 1.111 µM worked out at 20%. The result for `CC(=O)Nc1cc(-c2cc(C(=O)O)c(-c3ccccc3Cl)o2)c(C)cn1` [Compound I-56, 5-(2-acetamido-5-methylpyridin-4-yl)-2-(2-chlorophenyl)-3-furoic acid] reads 139%; that for `CC(=O)Nc1cc(-c2nc(-c3ccccc3Cl)c(-c3cc[nH]n3)o2)c(C)cn1` [Compound I-57, N-{4-[4-(2-chlorophenyl)-5-(1H-pyrazol-3-yl)-1,3-oxazol-2-yl]-5-methylpyridin-2-yl}acetamide], 135%; that for `O=C(Cc1ccc(O)cc1)Nc1cc(-c2nc(-c3nnc[nH]3)c(-c3ccccc3Cl)o2)ccn1` [Compound I-58, N-{4-[5-(2-chlorophenyl)-4-(4H-1,2,4-triazol-3-yl)-1,3-oxazol-2-yl]pyridin-2-yl}-2-(4-hydroxyphenyl)acetamide], 94%.

As for `CCNC(=O)c1nc(-c2cc(NC(C)=O)ncc2C)oc1-c1ccccc1Cl` [Compound I-59, 2-(2-acetamido-5-methylpyridin-4-yl)-5-(2-chlorophenyl)-N-ethyl-1,3-oxazole-4-carboxamide], the inhibition at 1.111 µM turned out to be 101%.

On to `CC(=O)Nc1cc(-c2nc(-c3nccs3)c(-c3ccccc3Cl)o2)c(C)cn1` [Compound I-60, N-{4-[5-(2-chlorophenyl)-4-(1,3-thiazol-2-yl)-1,3-oxazol-2-yl]-5-methylpyridin-2-yl}acetamide], for which the inhibition at 1.111 µM was determined as 122%. For `CC(=O)Nc1cc(-c2cc(C(=O)N(C)C)c(-c3ccccc3Cl)o2)c(C)cn1` [Compound I-61, 5-(2-acetamido-5-methylpyridin-4-yl)-2-(2-chlorophenyl)-N,N-dimethyl-3-furamide], the inhibition at 1.111 µM was 96%. With `CC(=O)Nc1cc(-c2nc(C(=O)NCCCn3ccnc3)c(-c3ccccc3Cl)o2)c(C)cn1` [Compound I-63, 2-(2-acetamido-5-methylpyridin-4-yl)-5-(2-chlorophenyl)-N-[3-(1H-imidazol-1-yl)propyl]-1,3-oxazole-4-carboxamide], the inhibition at 1.111 µM stood at 14%.

For `COCCNC(=O)c1nc(-c2cc(NC(C)=O)ncc2C)oc1-c1ccccc1Cl` [Compound I-64, 2-(2-acetamido-5-methylpyridin-4-yl)-5-(2-chlorophenyl)-N-(2-methoxyethyl)-1,3-oxazole-4-carboxamide], the inhibition at 1.111 µM was found to be 64%. Regarding `CC(C)CC(=O)Nc1cc(-c2nc(-c3nnc[nH]3)c(-c3ccccc3Cl)o2)ccn1` [Compound I-65, N-{4-[5-(2-chlorophenyl)-4-(4H-1,2,4-triazol-3-yl)-1,3-oxazol-2-yl]pyridin-2-yl}-3-methylbutanamide], the inhibition at 1.111 µM stood at 21%.

Take `O=C(Cc1ccccc1)Nc1cc(-c2nc(-c3nnc[nH]3)c(-c3ccccc3Cl)o2)ccn1` [Compound I-67, N-{4-[5-(2-chlorophenyl)-4-(4H-1,2,4-triazol-3-yl)-1,3-oxazol-2-yl]pyridin-2-yl}-2-phenylacetamide]: the inhibition at 1.111 µM worked out at 39%. Turning to `CC(=O)Nc1cc(-c2cc(C(=O)NCc3cccnc3)c(-c3ccccc3Cl)o2)c(C)cn1` [Compound I-68, 5-(2-acetamido-5-methylpyridin-4-yl)-2-(2-chlorophenyl)-N-(pyridin-3-ylmethyl)-3-furamide], the inhibition at 1.111 µM was 104%. For the molecule `CC(=O)Nc1cc(-c2cc(-c3ncco3)c(-c3ccccc3Cl)o2)c(C)cn1` [Compound I-69, N-{4-[5-(2-chlorophenyl)-4-(1,3-oxazol-2-yl)-2-furyl]-5-methylpyridin-2-yl}acetamide], the inhibition at 1.111 µM was 144%. Regarding `CC(=O)Nc1cc(-c2nc(C(=O)NCCn3ccnc3)c(-c3ccccc3Cl)o2)c(C)cn1` [Compound I-70, 2-(2-acetamido-5-methylpyridin-4-yl)-5-(2-chlorophenyl)-N-[2-(1H-imidazol-1-yl)ethyl]-1,3-oxazole-4-carboxamide], the inhibition at 1.111 µM turned out to be 45%. Take `Clc1ccccc1-c1oc(-c2ccnc3[nH]ccc23)nc1-c1nnc[nH]1` [Compound I-71, 4-[5-(2-chlorophenyl)-4-(4H-1,2,4-triazol-3-yl)-1,3-oxazol-2-yl]-1H-pyrrolo[2,3-b]pyridine]: the inhibition at 1.111 µM worked out at 87%. As for `CC(=O)Nc1cc(-c2cc(C(=O)NC(C)C)c(-c3ccccc3Cl)o2)c(C)cn1` [Compound I-72, 5-(2-acetamido-5-methylpyridin-4-yl)-2-(2-chlorophenyl)-N-isopropyl-3-furamide], the inhibition at 1.111 µM came out at 78%.

In the case of `CC(=O)Nc1cc(-c2nc(C(=O)N(C)C)c(-c3ccccc3Cl)o2)c(C)cn1` [Compound I-73, 2-(2-acetamido-5-methylpyridin-4-yl)-5-(2-chlorophenyl)-N,N-dimethyl-1,3-oxazole-4-carboxamide], the inhibition at 1.111 µM worked out at 115%. With `CC(=O)Nc1cc(-c2nc(C(=O)NC3CCC3)c(-c3ccccc3Cl)o2)c(C)cn1` [Compound I-74, 2-(2-acetamido-5-methylpyridin-4-yl)-5-(2-chlorophenyl)-N-cyclobutyl-1,3-oxazole-4-carboxamide], the inhibition at 1.111 µM was determined as 28%. `CCC(=O)Nc1cc(-c2nc(-c3nnc[nH]3)c(-c3ccccc3Cl)o2)ccn1` [Compound I-75, N-{4-[5-(2-chlorophenyl)-4-(4H-1,2,4-triazol-3-yl)-1,3-oxazol-2-yl]pyridin-2-yl}propanamide]: the inhibition at 1.111 µM was found to be 114%. On to `CCCC(=O)Nc1cc(-c2nc(-c3nnc[nH]3)c(-c3ccccc3Cl)o2)ccn1` [Compound I-76, N-{4-[5-(2-chlorophenyl)-4-(4H-1,2,4-triazol-3-yl)-1,3-oxazol-2-yl]pyridin-2-yl}butanamide], for which the inhibition at 1.111 µM was 79%.

As to `Cc1cnc(NC(=O)C2CC2)cc1-c1nc(-c2nnc[nH]2)c(-c2ccccc2Cl)o1` [Compound I-77, N-{4-[5-(2-chlorophenyl)-4-(4H-1,2,4-triazol-3-yl)-1,3-oxazol-2-yl]-5-methylpyridin-2-yl}cyclopropanecarboxamide], the inhibition at 1.111 µM came out at 120%. As for `CC(=O)Nc1cc(-c2nc(-c3ccccc3Cl)c(-c3ccccn3)o2)c(C)cn1` [Compound I-78, N-{4-[4-(2-chlorophenyl)-5-(pyridin-2-yl)-1,3-oxazol-2-yl]-5-methylpyridin-2-yl}acetamide], the inhibition at 1.111 µM stood at 43%. In the case of `CC(=O)Nc1cc(-c2nc(N3CCCC(N(C)C)C3)c(-c3nnc[nH]3)o2)c(C)cn1` (stereo not shown) [Compound I-79, N-(4-{4-[3-(dimethylamino)piperidin-1-yl]-5-(4H-1,2,4-triazol-3-yl)-1,3-oxazol-2-yl}-5-methylpyridin-2-yl)acetamide], the inhibition at 1.111 µM stood at 82%. On to `CC(=O)Nc1cc(-c2cc(C(=O)NCCC(C)C)c(-c3ccccc3Cl)o2)c(C)cn1` [Compound I-80, 5-(2-acetamido-5-methylpyridin-4-yl)-2-(2-chlorophenyl)-N-(3-methylbutyl)-3-furamide], for which the inhibition at 1.111 µM stood at 92%. On to `CCNC(=O)c1cc(-c2cc(NC(C)=O)ncc2C)oc1-c1ccccc1Cl` [Compound I-81, 5-(2-acetamido-5-methylpyridin-4-yl)-2-(2-chlorophenyl)-N-ethyl-3-furamide], for which the inhibition at 1.111 µM worked out at 112%. Take `CC(=O)Nc1cc(-c2nc(C(=O)NCCc3cn4ccccc4n3)c(-c3ccccc3Cl)o2)c(C)cn1` [Compound I-82, 2-(2-acetamido-5-methylpyridin-4-yl)-5-(2-chlorophenyl)-N-[2-(imidazo[1,2-a]pyridin-2-yl)ethyl]-1,3-oxazole-4-carboxamide]: the inhibition at 1.111 µM was determined as 68%.

As for `CC(=O)Nc1cc(-c2cc(C(N)=O)c(-c3ccccc3Cl)o2)c(C)cn1` [Compound I-83, 5-(2-acetamido-5-methylpyridin-4-yl)-2-(2-chlorophenyl)-3-furamide], the inhibition at 1.111 µM amounted to 130%. For `CC(=O)Nc1cc(-c2cc(C(=O)NCCCN3CCCC3)c(-c3ccccc3Cl)o2)c(C)cn1` [Compound I-84, 5-(2-acetamido-5-methylpyridin-4-yl)-2-(2-chlorophenyl)-N-[3-(pyrrolidin-1-yl)propyl]-3-furamide], the inhibition at 1.111 µM came to 54%. In the case of `CC(=O)Nc1cc(-c2cc(C(=O)NCc3ccc(N(C)C)cc3)c(-c3ccccc3Cl)o2)c(C)cn1` [Compound I-85, 5-(2-acetamido-5-methylpyridin-4-yl)-2-(2-chlorophenyl)-N-[4-(dimethylamino)benzyl]-3-furamide], the inhibition at 1.111 µM is 56%.

For the origin of these results see patent publication US8859768B2, “Heteroaryls and uses thereof” (Millennium Pharmaceuticals, Inc., priority 2010, dated 2014).
